{
  "source": "patent US9296749B2",
  "about": "“Crystalline cis-(E)-4-(3-fluorophenyl)-2′,3′,4′,9′-tetrahydro-N,N-dimethyl-2′-(1-oxo-3-phenyl-2-propenyl)-spiro[cyclohexane-1,1′[1H]” (priority 2013, dated 2016)",
  "format_in_all_cases": "physicochemical",
  "key": {"[1]": {"test": "Chemical stability of crystalline forms, open-vial storage (content by HPLC, crystalline form by XRPD)", "procedure": "Samples of compound 1 in different crystalline forms were stored in open vials under controlled conditions at different temperatures and rel. humidities for 28 days. Prior to storage and after 14 and 28 days the content of compound (1) in the sample was determined via HPLC and the crystalline form was measured via XRPD."}, "[2]": {"test": "Chemical stability in pharmaceutical compositions (excipient mixtures with 10% compound (1))", "details": "listed as B", "procedure": "To test the chemical stability, i.e. compatibility of different crystalline forms of compound (1), solid multi component mixtures were prepared comprising well established excipients used for solid oral dosage form and having different functions therein. The single components of each mixture were exactly weighed and intensively triturated using a mortar and a pestle.\n10 g of the final mixtures were separately filled into glass vials (open or closed) and stored under the conditions outlined below in table 13. Samples were taken and analyzed initially and after 1, 2 and 3 months with respect to the content of compound (1) within the mixtures."}, "[3]": {"test": "Dynamic vapor sorption (DVS), hygroscopicity", "procedure": "Crystalline forms were characterized by dynamic vapor sorption (DVS) using a Porotec DVS 1000 or a SMS DVS Intrinsic water vapor sorption analyzer. For the DVS analysis, a step width of 10% r.h. was applied allowing the samples to equilibrate and reach weight constancy (±0.002%) for at least 10 min on each step. All measurements were performed according to the following program: 50% r.h.→90% r.h., 90→0% r.h., 0%→90% r.h., 90%→50% r.h. A cycle with increasing humidity is also known as a sorption cycle, a cycle with decreasing humidity is also known as a desorption cycle. The details of the respective DVS measurements are shown below in table 51 and discussed further below.\nThe hygroscopicity of the respective crystalline forms determined via the DVS measurements was classified according to the ranges for mass increase defined in the European Pharmacopoeia: very hygroscopic (vh): increase of the mass ≧15%; hygroscopic (h): increase of the mass is less than 15% and equal or greater than 2%; slightly hygroscopic (sh): increase of the mass is less than 2% and equal or greater than 0.2%; not hygroscopic (nh): increase of the mass is less than 0.2%; deliquescent (d): sufficient water is absorbed to form a liquid."}, "[4]": {"test": "Stability of crystalline form B on drying at reduced pressure", "details": "dried at 50±2° C., about 7 mBar, 72 hours", "procedure": "The samples were let to cool to room temperature under ambient conditions before they were analyzed."}, "[5]": {"test": "Storage of crystalline form C, X-ray diffraction", "details": "stored for up to 4 months"}},
  "data": [
    {"smiles": "CN(C)[C@]1(c2cccc(F)c2)CC[C@]2(CC1)c1[nH]c3ccccc3c1CCN2C(=O)/C=C/c1ccccc1", "note": "[crystalline form B, cis-(E)-4-(3-Fluorophenyl)-2′,3′,4′,9′-tetrahydro-N,N-dimethyl-2′-(1-oxo-3-phenyl-2-propenyl)-spiro[cyclohexane-1,1′[1H]-pyrido[3,4-b]indol]-4-amine]", "values": [
      {"measurement": "Content cmpd (1)", "setting": "[1]; 40° C., 75% r.H., storage 0 d, listed as B", "result": 84.85, "unit": "%"},
      {"measurement": "Content cmpd (1)", "setting": "[1]; 40° C., 75% r.H., storage 14 d, listed as B", "result": 84.21, "unit": "%"},
      {"measurement": "Content cmpd (1)", "setting": "[1]; 40° C., 75% r.H., storage 28 d, listed as B", "result": 83.74, "unit": "%"},
      {"measurement": "Content cmpd (1)", "setting": "[1]; 50° C., storage 0 d, listed as B", "result": 84.85, "unit": "%"},
      {"measurement": "Content cmpd (1)", "setting": "[1]; 50° C., storage 14 d, listed as B", "result": 82.63, "unit": "%"},
      {"measurement": "Content cmpd (1)", "setting": "[1]; 50° C., storage 28 d, listed as B", "result": 81.26, "unit": "%"},
      {"measurement": "content of compound (1) within the mixture", "setting": "[2]; Lactose monohydrate, PVP25, Crospovidone, Talcum, 40° C., 75% rel. hum., 0 month", "result": 99.57},
      {"measurement": "content of compound (1) within the mixture", "setting": "[2]; Lactose monohydrate, PVP25, Crospovidone, Talcum, 40° C., 75% rel. hum., 1 month", "result": 99.22},
      {"measurement": "content of compound (1) within the mixture", "setting": "[2]; Lactose monohydrate, PVP25, Crospovidone, Talcum, 40° C., 75% rel. hum., 2 months", "result": 99.05},
      {"measurement": "content of compound (1) within the mixture", "setting": "[2]; Lactose monohydrate, PVP25, Crospovidone, Talcum, 40° C., 75% rel. hum., 3 months", "result": 96.87},
      {"measurement": "content of compound (1) within the mixture", "setting": "[2]; Lactose monohydrate, PVP25, Crospovidone, Talcum, 50° C. dry, 0 month", "result": 99.57},
      {"measurement": "content of compound (1) within the mixture", "setting": "[2]; Lactose monohydrate, PVP25, Crospovidone, Talcum, 50° C. dry, 1 month", "result": 95.82},
      {"measurement": "content of compound (1) within the mixture", "setting": "[2]; Lactose monohydrate, PVP25, Crospovidone, Talcum, 50° C. dry, 2 months", "result": 91.04},
      {"measurement": "content of compound (1) within the mixture", "setting": "[2]; Lactose monohydrate, PVP25, Crospovidone, Talcum, 50° C. dry, 3 months", "result": 85.33},
      {"measurement": "content of compound (1) within the mixture", "setting": "[2]; Microcrystalline cellulose, HPMC 6 mPas, L-HPC LH21, magnesium stearate, 40° C., 75% rel. hum., 0 month", "result": 99.69},
      {"measurement": "content of compound (1) within the mixture", "setting": "[2]; Microcrystalline cellulose, HPMC 6 mPas, L-HPC LH21, magnesium stearate, 40° C., 75% rel. hum., 1 month", "result": 99.53},
      {"measurement": "content of compound (1) within the mixture", "setting": "[2]; Microcrystalline cellulose, HPMC 6 mPas, L-HPC LH21, magnesium stearate, 40° C., 75% rel. hum., 2 months", "result": 98.57},
      {"measurement": "content of compound (1) within the mixture", "setting": "[2]; Microcrystalline cellulose, HPMC 6 mPas, L-HPC LH21, magnesium stearate, 40° C., 75% rel. hum., 3 months", "result": 99.39},
      {"measurement": "content of compound (1) within the mixture", "setting": "[2]; Microcrystalline cellulose, HPMC 6 mPas, L-HPC LH21, magnesium stearate, 50° C. dry, 0 month", "result": 99.75},
      {"measurement": "content of compound (1) within the mixture", "setting": "[2]; Microcrystalline cellulose, HPMC 6 mPas, L-HPC LH21, magnesium stearate, 50° C. dry, 1 month", "result": 95.74},
      {"measurement": "content of compound (1) within the mixture", "setting": "[2]; Microcrystalline cellulose, HPMC 6 mPas, L-HPC LH21, magnesium stearate, 50° C. dry, 2 months", "result": 91.45},
      {"measurement": "content of compound (1) within the mixture", "setting": "[2]; Microcrystalline cellulose, HPMC 6 mPas, L-HPC LH21, magnesium stearate, 50° C. dry, 3 months", "result": 87.34},
      {"measurement": "hysteresis", "setting": "[3]; between 10% to 40% relative humidity", "result": "> 0.5", "unit": "%"},
      {"measurement": "resulting crystalline form", "setting": "[4]", "result": "crystalline form B"}
    ]},
    {"smiles": "CN(C)[C@]1(c2cccc(F)c2)CC[C@]2(CC1)c1[nH]c3ccccc3c1CCN2C(=O)/C=C/c1ccccc1", "note": "[crystalline form C, cis-(E)-4-(3-Fluorophenyl)-2′,3′,4′,9′-tetrahydro-N,N-dimethyl-2′-(1-oxo-3-phenyl-2-propenyl)-spiro[cyclohexane-1,1′[1H]-pyrido[3,4-b]indol]-4-amine]", "values": [
      {"measurement": "Content cmpd (1)", "setting": "[1]; 40° C., 75% r.H., storage 0 d, listed as C", "result": 99.67, "unit": "%"},
      {"measurement": "Content cmpd (1)", "setting": "[1]; 40° C., 75% r.H., storage 14 d, listed as C", "result": 99.68, "unit": "%"},
      {"measurement": "Content cmpd (1)", "setting": "[1]; 40° C., 75% r.H., storage 28 d, listed as C", "result": 99.44, "unit": "%"},
      {"measurement": "Content cmpd (1)", "setting": "[1]; 50° C., storage 0 d, listed as C", "result": 99.67, "unit": "%"},
      {"measurement": "Content cmpd (1)", "setting": "[1]; 50° C., storage 14 d, listed as C", "result": 99.57, "unit": "%"},
      {"measurement": "Content cmpd (1)", "setting": "[1]; 50° C., storage 28 d, listed as C", "result": 99.20, "unit": "%"},
      {"measurement": "weight loss", "setting": "[3]; desorption cycle from 90 to 0% r.h.", "result": "about 6.6%"},
      {"measurement": "change in mass", "setting": "[3]; sorption cycle from 50% to 90% relative humidity", "result": "no major change in mass"},
      {"measurement": "weight gain at 90%", "setting": "[3]; subsequent sorption cycle", "result": "about 2.8%"},
      {"measurement": "conversion on storage", "setting": "[5]", "result": "converted to Polymorph I in three to four months"}
    ]}
  ]
}
